{"source": "patent US10207993B2", "about": "(priority 2014, dated 2019)", "key": {"[1]": {"experiment": "in vivo", "settings": "Balb/C, mouse"}, "[2]": {"test_system": "JAL2287", "format": "cell-based, M. tuberculosis"}, "[3]": {"test_system": "H37Rv", "experiment": "microbe, parasite or virus in culture", "format": "cell-based, M. tuberculosis", "settings": "Mycobacterium tuberculosis, THP-1, 90 h"}, "[4]": {"test_system": "MDR-M. tb (JAL2287)", "design": "species or system M. tuberculosis", "settings": "in vivo"}, "[5]": {"experiment": "in vivo", "settings": "Beagle, dog"}, "[6]": {"test_system": "drug susceptible M. tb (H37Rv)", "design": "species or system M. tuberculosis", "settings": "in vivo"}, "[7]": {"test_system": "JAL2287", "experiment": "microbe, parasite or virus in culture", "format": "cell-based, M. tuberculosis", "settings": "Mycobacterium tuberculosis, THP-1, 90 h"}, "[8]": {"test_system": "H37Rv", "experiment": "microbe, parasite or virus in culture", "format": "cell-based, M. tuberculosis", "settings": "Mycobacterium tuberculosis, H37RV, THP-1, 90 h, read-out: H37Rv % Inhibition at 500 nM"}, "[9]": {"test_system": "MYC431", "experiment": "microbe, parasite or virus in culture", "format": "cell-based, M. tuberculosis", "settings": "Mycobacterium tuberculosis, THP-1, 90 h"}, "[10]": {"settings": "Balb/C, mouse, in vivo, po, 10 mg/kg"}, "[11]": {"test_system": "MYC431", "format": "cell-based, M. tuberculosis"}, "[12]": {"test_system": "H37Rv", "format": "cell-based, M. tuberculosis"}}, "note": "Where “and” joins values, the source holds several entries; their conditions need not be identical. Equal values may be shown once. Read-outs that look alike come from different tables or passages of the source."}
{"smiles": "CO[C@@H](C(=O)NC1CCNCC1)c1ccccc1", "note": "[Compound 1085, (R)-2-Methoxy-2-phenyl-N-(piperidin-4-yl)acetamide]", "values": [{"measurement": "bioavailability", "setting": "[1]", "result": 47, "unit": "%"}, {"measurement": "AUC", "setting": "[1]; iv, 1 mg/kg", "result": 1.73, "unit": "µM·h"}, {"measurement": "Cmax", "setting": "[1]; iv, 1 mg/kg", "result": 3.06, "unit": "µM"}, {"measurement": "Tmax", "setting": "[1]; iv, 1 mg/kg", "result": 0, "unit": "h"}, {"measurement": "Vd", "setting": "[1]; iv, 1 mg/kg", "result": 0.22, "unit": "L/kg"}, {"measurement": "clearance", "setting": "[1]; iv, 1 mg/kg", "result": 1.33, "unit": "mL/min/kg"}, {"measurement": "half-life", "setting": "[1]; iv, 1 mg/kg", "result": 1.9, "unit": "h"}, {"measurement": "AUC", "setting": "[1]; po, 10 mg/kg", "result": 8.17, "unit": "µM·h"}, {"measurement": "Cmax", "setting": "[1]; po, 10 mg/kg", "result": 11.2, "unit": "µM"}, {"measurement": "Tmax", "setting": "[1]; po, 10 mg/kg", "result": 0.2, "unit": "h"}, {"measurement": "half-life", "setting": "[1]; po, 10 mg/kg", "result": 2.8, "unit": "h"}, {"measurement": "CFU/well (1 × 10^3) After treatment with 1085", "setting": "[2]", "result": "6.33 ± 3.51 CFU/well (1 × 10^3)"}, {"measurement": "EC50", "setting": "[3]", "result": 0.5, "unit": "nM"}, {"measurement": "% Reduction of CFU in lung", "setting": "[4]", "result": "43.5% and 62.4% and 80.0%"}, {"measurement": "% Reduction of CFU in spleen", "setting": "[4]", "result": "96.6% and 98.3%"}, {"measurement": "CFU/spleen (×10^3)", "setting": "[4]", "result": "0.4 ×10^3 and 0.2 ×10^3"}, {"measurement": "bioavailability", "setting": "[5]", "result": 57, "unit": "%"}, {"measurement": "AUC(0-t)", "setting": "[5]; iv, 0.3 mg/kg", "result": 3.44, "unit": "µM·h"}, {"measurement": "Cmax", "setting": "[5]; iv, 0.3 mg/kg", "result": 2.76, "unit": "µM"}, {"measurement": "Tmax", "setting": "[5]; iv, 0.3 mg/kg", "result": 0, "unit": "h"}, {"measurement": "half-life", "setting": "[5]; iv, 0.3 mg/kg", "result": 3, "unit": "h"}, {"measurement": "AUC(0-t)", "setting": "[5]; po, 3 mg/kg", "result": 19.6, "unit": "µM·h"}, {"measurement": "Cmax", "setting": "[5]; po, 3 mg/kg", "result": 3.77, "unit": "µM"}, {"measurement": "Tmax", "setting": "[5]; po, 3 mg/kg", "result": 1, "unit": "h"}, {"measurement": "half-life", "setting": "[5]; po, 3 mg/kg", "result": 2.5, "unit": "h"}, {"measurement": "CFU/Lung (×10^5)", "setting": "[6]", "result": "4.76 ×10^5"}, {"measurement": "EC50", "setting": "[7]", "result": 0.1, "unit": "nM"}, {"measurement": "inhibition at 0.5 µM", "setting": "[8]", "result": 93, "unit": "%"}, {"measurement": "EC50", "setting": "[9]", "result": 0.1, "unit": "nM"}, {"measurement": "Cl", "setting": "[10]", "result": 2, "unit": "mL/min/kg"}, {"measurement": "Vd", "setting": "[10]", "result": 0.13, "unit": "L/kg"}, {"measurement": "CFU/well (1 × 10^3) After treatment with 1085", "setting": "[11]", "result": "6.00 ± 1.00 CFU/well (1 × 10^3)"}, {"measurement": "CFU/well (1 × 10^3) After treatment with 1085", "setting": "[12]", "result": "8.66 ± 2.51 CFU/well (1 × 10^3)"}]}
